From paper PMC10861593, “Kisspeptin-10 binding to Gpr54 in osteoclasts prevents bone loss by activating Dusp18-mediated dephosphorylation of Src” (Nature Communications, 2024) come the findings set out here.

Entries after “also recorded” stand apart in the source; their conditions may differ.

For the assay, the system named is Dusp18 expression. Put plainly: WB of Dusp18 protein expression in RAW264.7 cells. Type of assay: cell-based, mouse. The text has this:
Anti-Flag IP of lysates derived from 293 T cells transfected with GPR54-flag and Src-HA constructs (d) and quantification results (e). Anti-Flag IP of lysates derived from 293 T cells transfected with GPR54-flag and DUSP18-HA constructs (f) and quantification results (g). Anti-Flag IP of lysates derived from 293 T cells transfected with Src-HA, and DUSP18-flag constructs (h) and quantification results (i). j, k IB analysis of lysates derived from WT BMMs and Gq/11 KO BMMs with or without Kp-10 treatment for 1 h (j) and quantification of results (k). l Working model of Kp-10 /Gpr54 mediated Src dephosphorylation. […] However, both active Src and DUSP18 were recruited by GPR54 through the PR motif in GPR54 CT along with the increase of Kp-10 dose (1, 10 nM). […] Data represent means ± SEM. P values were determined by one-way ANOVA analysis (b, c, e, g, i, k). Representative results were obtained from at least three independent experiments. Source data are provided as a Source Data file.
Whole-cell proteins were extracted using 1x RIPA buffer (25 mM Tris, pH7.5, 150 mM NaCl, 0.5% Sodium deoxycholate, 1% Triton-X-100) supplemented with protease inhibitors (Complete Mini, Roche) and phosphatase inhibitors (phosphatase inhibitor cocktail set I and II, Calbiochem). Immunoprecipitation and immunoblotting with indicated antibodies were performed as described in Supplementary Table 1. Image Jsoftware (V1.52) was used for quantification analysis. Uncropped and unprocessed blots are presented in the Supplementary Information file.
Supplementary Fig. 7 a-b IB and quantification of Dusp18 protein level induced by indicated dose of Kp-10 for 1 hour in RAW264.7 cells (a) and quantification of protein levels (b) or induced by Kp-10 (1nM) for 1 hour in RAW264.7 transfected with ERK1/2 siRNA. Error bars are ± SEM. P-values were determined by one-way ANOVA analysis (b). ****P <0.0001. “ns” means no significant difference. Representative results were observed from at least three independent experiments. Source data are provided as a Source Data file.

For Kisspeptin-10 [Kp-10], the “protein level of Dusp18 upon ERK1/2 siRNA” value (RAW264.7, ERK1/2 siRNA, Kp-10 (1 nM) 1 h) is recorded as “cannot be obviously up-regulated”. For the same substance, the “expression of Dusp18 (protein), 10 nM” value (RAW264.7, Kp-10 10 nM for 1 h) was “not by 10 nM Kp-10”. Further, the “expression of Dusp18 (protein), 0.1 and 1 nM” value (RAW264.7, Kp-10 0.1, 1 nM for 1 h) is on record as “obviously upregulated the expression of Dusp18; also recorded: induced the expression of Dusp18 obviously”.
